Results reported in patent US9365491B2, “Inhibitors of cognitive decline” (COGNITION THERAPEUTICS, INC., priority 2009, dated 2016).
“Also recorded” adds a separate entry of the source.

Experiments:
[1] = system: Abeta oligomer effects on membrane trafficking in mature primary neurons; experiment: Primary neuron-based functional screening assay (membrane trafficking/exocytosis, Example DD); type: cell-based, rat; settings: for activity in blocking the effects of Abeta oligomers on membrane trafficking: compound added to neurons before oligomers
From the text: Primary rat neurons grown for at least 3 weeks in vitro were chosen as the basis for this screening assay. […] More complex systems such as acute or organotypic brain slices are very useful but not amenable to high throughput screening. […] For this reason, primary neuronal cultures were chosen because of their ability to be used in high throughput screens and fidelity to what occurs in vivo.
(Scale bar=20 microns in FIG. 1A). […] (FIG. 1B).
The MTT assay can be used as a measure of toxicity in cultures. Yellow tetrazolium salts were endocytosed by cells and reduced to insoluble purple formazan in the endosomal pathway. The level of purple formazan was a reflection of the number of actively metabolizing cells in culture, and reduction in the amount of formazan was taken as a measure of cell death or metabolic toxicity in culture.
The exocytosis assay was adapted for use with mature primary neuronal cultures grown for 3 weeks in vitro.
Compounds were added to neurons first, then oligomers were added.
Data were the average of 3 experiments. Scale bar=20 micron in FIG. 2D.

[2] = biological target: T1, Abeta 1-42 Oligomers (Homo sapiens, UniProt P05067); experiment: Binding assay (Example BB): Abeta oligomer binding to neurons, image processing; settings: imaging processing algorithm
T1 construct: Human amyloid peptide 1-42 is obtained from California Peptide; purchased California Peptide
T1 sequence (P05067 672-713): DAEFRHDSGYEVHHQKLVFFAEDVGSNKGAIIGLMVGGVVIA
Description: Each test compound was added to a plate followed by an addition of one or more of Abeta 1-42 Oligomers. The plates were fixed with 3.7% paraformaldehyde in phosphate buffered saline (PBS) for 15 min. The plate was then washed 3× with PBS for 5 min each. The plates were blocked at room temperature for 1 hour in 5% goat serum and 0.5% Triton X-100 (CAS number: 9002-93-1) in PBS. Primary antibodies (anti-MAP 2 polyclonal, Millipore #AB5622 and anti-Beta Amyloid 6E10 monoclonal, Convance #SIG-39300) were diluted 1:1000 in 5% goat serum with PBS. Primary antibodies were incubated either overnight at 4° C. or 1 hour at RT. The plate was then washed 3× with PBS for 5 min each. Secondary antibodies (Alex Flor 488 polyclonal, Invitrogen #A11008 and Alexa Flor 647 monoclonal, Invitrogen #A21235) were diluted 1:1000 in 5% goat serum with PBS. Secondary antibodies were incubated at RT for 1 hr. The plates were washed once with PBS. […]
Human amyloid peptide 1-42 is obtained from California Peptide, with lot-choice contingent upon quality control analysis. […] Toxicity is monitored in each image-based assay via quantification of nuclear morphology visualized with the DNA binding dye DAPI (Invitrogen). […]
Images were captured and analyzed with the Cellomics VTI automated microscope platform, using the Neuronal Profiling algorithm. […]

[3] = Pharmacokinetic studies (Example CC), plasma; type: in vivo; settings: rat, iv, rats, injected intravenously at 1 mg/Kg
Description: PK studies are performed at CEREP Inc of Redmond Wash., according to their standard protocols: The plasma samples were processed using acetonitrile precipitation and analyzed by HPLC-MS or HPLC-MS/MS. Peak areas were recorded, and the concentrations of the test compound in the unknown plasma samples were determined using the respective calibration curve. The reportable linear range of the assay was determined, along with the lower limit of quantitation (LLQ).
Pharmacokinetic studies were performed according to the following protocols: The plasma samples were processed using acetonitrile precipitation and analyzed by HPLC-MS or HPLC-MS/MS. Peak areas were recorded, and the concentrations of the test compound in the unknown plasma samples were determined using the respective calibration curve. The reportable linear range of the assay was determined, along with the lower limit of quantitation (LLQ).

[4] = system: Abeta oligomer-induced acceleration of exocytosis in primary neurons; experiment: Exocytosis assay/MTT assay (Example AA); type: cell-based, rat; settings: Primary neuron
Description: Primary neurons from E18 Sprague-Dawley rat embryos are plated at optimized concentrations in 384 well plates in NB media (Invitrogen). Neurons are maintained in cultures for 3 weeks, with twice weekly feeding of NB media with N2 supplement (Invitrogen). A test compound is added to cells, followed by addition of Vehicle or Abeta oligomer preparations (1.5 μM), and incubated for 1 to 24 hr at 37° C. in 5% CO2. MTT reagent (3-(4,5-dimethylthizaol-2yl)-2,5diphenyl tetrazolium bromide) (Roche Molecular Biochemicals) is reconstituted in phosphate buffered saline to 5 mg/mL. 10 μL of MTT labeling reagent is added to each well and incubated at 37° C. for 1 h, then imaged.
Each assay plate is formatted so that compounds are tested with and without Abeta on each plate. […] Statistical performance of the screening plate layout are assessed, screening will be initiated if the current performance is maintained. […]
Optimal cell density is determined based on cellular response to Abeta oligomers using the exocytosis assay as a readout, and immunohistochemical analysis of the relative proportion of glia to neurons in the cultures. Cultures are monitored on a weekly basis with immunohistochemistry and image processing-based quantification to monitor the percentage of the cultures that are neurons vs. glia (Glial cells). […]

[5] = system: Abeta assemblies isolated from AD patients or normal individuals; experiment: Membrane trafficking assay with patient-derived Abeta assemblies (Example FF); type: cell-based; settings: FIG. 4
Description: Abeta assemblies were isolated from patients with Alzheimer's Disease (AD) or from normal patients. The Abeta assemblies were tested for their ability to modulate membrane trafficking. […] (FIG. 4). […] Compound Example 2 has no effect on Abeta assemblies isolated from Age-matched normal individuals. (FIG. 4). […] (FIG. 4).

[6] = system: Abeta oligomer-mediated memory deficits; experiment: Fear conditioning assay (Example EE); type: in vivo, mice
Description: Compound Example 2 was tested in an animal model of a memory-dependent behavioral task known as fear conditioning. The study protocol was designed based on published protocols (See e.g. Puzzo D, Privitera L, Leznik E, Fà M, Staniszewski A, Palmeri A, Arancio O. Picomolar amyloid-beta positively modulates synaptic plasticity and memory in hippocampus. J Neurosci. 2008 Dec. 31; 28(53)14537-45.). The formation of contextual memories is dependent upon the integrity of medial temporal lobe structures such as the hippocampus. In this assay mice were trained to remember that a particular salient context (conditioned stimulus; CS) is associated with an aversive event, in this case a mild foot shock (the unconditioned stimulus, US). Animals that show good learning will express an increase in freezing behavior when placed back into the same context. This freezing is absent in a novel context. Increased freezing in the context indicates strong hippocampal-dependent memory formation in animals. Memory tested in Fear Conditioning is sensitive to elevations of soluble Aβ. […] The fear condition model for memory was performed as described herein.

For `C[N+](C)(C)CCCCCC[N+](C)(C)C` [hexamethonium bromide, reference compound], the “activity in blocking the effects of Abeta oligomers on membrane trafficking” value (from here on “activity in blocking the effects”) [1] was “none were active”.

In the case of `COc1cc(CCC(C)NCc2ccc(Cl)cc2)ccc1O` (stereo not drawn) [Compound Example 1, 4-(3-(4-chlorobenzylamino)butyl)-2-methoxyphenol], the “partial block of binding of the Abeta oligomer ligand to neurons” value [2] is reported as 24%, the half-life [3] is reported as 46 min and the EC50 ([4]; MTT assay, primary rat neurons, Abeta oligomers 1.5 μM, read-out: EC50 for block of Abeta oligomer-induced acceleration of exocytosis) is reported as 10 µM.

In the case of `C[C@]12N[C@H](Cc3ccccc31)c1ccccc12` [MK-801, reference compound], the “activity in blocking the effects” value [1] is reported as “none were active”.

With `COc1cc(CCC(C)NCc2ccc(C(F)(F)F)cc2)ccc1O` (stereo not drawn) [Compound Example 2, 4-(3-(4-(trifluoromethyl)benzylamino)butyl)-2-methoxyphenol] the EC50 ([1]; Rattus norvegicus, Primary neuron, 504 h, FIG. 2B, primary neurons 3 weeks in vitro, read-out: EC50 for inhibition of oligomer effects on membrane trafficking) was 7 µM, the “activity in blocking the effects” value [1] was “inhibits oligomer effects on membrane trafficking; also recorded: effective” and the “effect on trafficking effects of AD-brain derived Abeta assemblies” value ([5]; IMW (10-100 KDa) assemblies from AD patients) was “significantly blocked”. For the same compound, the “effect on Abeta assemblies isolated from Age-matched normal individuals” value ([5]; IMW assemblies from normal individuals) was “no effect”, the “effect on Abeta oligomer-mediated memory deficits” value ([6]; 2 pmol dose, given prior to Abeta (200 nM), contextual fear conditioning, FIG. 3 bar d) was “completely blocked” and the “block of oligomer effects on memory across doses” value ([6]; administered prior to Abeta oligomer administration) was “blocked oligomer effects on memory in a dose-dependent manner”. For the same compound, the adverse behavioral changes ([6]; any dose) was “No adverse behavioral changes were observed” and the “effect of compound alone on memory” value ([6]; no Abeta, data not shown) was “No effect”.

In the case of `O[C@H]1[C@H](O)[C@@H](O)[C@H](O)[C@@H](O)[C@@H]1O` [scyllo-inositol, reference compound], the “activity in blocking the effects” value [1] is reported as “none were active”.

Work on `CC12CC3CC(C)(C1)CC(N)(C3)C2` [Memantine, memantine, reference compound] yielded an inhibition at 28 µM ([4]; Rattus norvegicus, 28 μM memantine, control on each plate, read-out: inhibition of oligomer effects) of 50%.
